Assay results from patent publication US20230184743A1, “SCREENING METHODS TO IDENTIFY SMALL MOLECULE COMPOUNDS THAT PROMOTE OR INHIBIT THE GROWTH OF CIRCULATING TUMOR CELLS, AND USES THEREOF” (University of Southern California, priority 2020, published 2023).
Entries after “also recorded” stand apart in the source; their conditions may differ.

Columns and labels:
Assay type in all cases: cell-based, human
[1] = test system: single CTCs from a patient with breast cancer; test: Culture of freshly isolated single CTCs from patients with breast cancer in NAC containing media; details: clones dying after 2 weeks in regular media
Protocol: Patient samples. Ten milliliters of blood was collected from each of a total of 12 patients with breast cancer (stage IV). All experiments were performed following the ethical principles. Informed consents were signed by all patients and/or their legal guardian/s.
Isolation of single CTCs. Single CTCs were detected and retrieved using the negative selection protocol of PIC&RUN assay. Briefly, 7.5 mL of blood was added to each AccuCyte Separation Tube (RareCyte) and tubes were centrifuged twice in a special device to collect buffy coats in 1 mL of CTC media. Buffy coats were stained with a cocktail of immune cell markers (IM) antibodies (CD45, CD14, and CD16) and Cell-Tracker green for 30 min at 37° C. Stained buffy coats were seeded on polyhema coated cyteslides and scanned semi-automatically using RareCyte fluorescence. When a CTC was detected, the Rarecyte ceramic tip needle was operated semi-automatically to pick up the cell of interest in a draw volume of 50 nL to 0.5 μL, and deposit it in a PCR tube contains 50 μL of media. PCR tubes were pulse spun, their contents were moved to a well of a 96-well GravityTRAP ultralow plate (InSphero) and plates were incubated at 37° C., 5% CO2 and 4% 02 for 3 weeks. Media was replaced every 3 to 4 days and cells were checked every week.
NAC rescued the proliferation of freshly isolated CTCs from a patient with breast cancer. […]

[2] = test system: CTC lines (BRx42, BRx50 and BRx68) spiked into healthy donors' blood; test: Spike-in experiment: growth of CTCs isolated from spiked healthy donors' blood; details: RosetteSep isolated, cultured 20 days
Protocol: Spike-in experiment. Healthy volunteers' blood samples were collected. GFP-positive CTC lines (50 cells/mL) were spiked into the blood samples from healthy volunteers, and RosetteSep™ CTC Enrichment Cocktail Containing […] was used to enrich CTCs from spiked-in samples. Isolated CTCs were cultured in GravityTRAP™ ULA Plate 96 wells. Each patient CTC cell line was processed by 2 different researchers.
Validation on spiked-in CTCs. To mimic the CTC isolation procedure, spiked-in experiments were performed with 3 CTC lines (BRx42, BRx50 and BRx68) into healthy donors' blood. The RosettSep CTC isolation method was used to isolate the spiked CTCs, and separated isolated CTCs equally into wells with control media or with NAC or NAC plus P1C2. […] This confirmed the effects of these compounds on expanding CTCs that have been processed through an isolation procedure. NAC single cell clones form tumors with similar kinetics as controls. It was noticed that the most critical phase is the initial expansion from single CTCs. […] Therefore, treatment of these compounds was stopped at 24 days, and then prolonged the culture to generate several single cell clones. To evaluate the tumorigenicity of the single cell clones, GFP-Luciferase tagged BRx68 single clones generated with NAC treatment or control clones were injected into the mammary fat pats of female NSG mice.

BRx68-GFP+ cells = test: RNA-seq analysis of pools of growing single cell clones; details: day 6; NAC 0.3 mM, P4D8 1 μM
Protocol: RNA-seq analysis. BRx68-GFP+ cells were sorted, with 1 cell per well, using the MoFlo cell sorter (Beckman Coulter). Single cells were cultured in the presence of CTC media containing either 1 μM of P1C2, P4D8, or P1G7, or 0.3 mM of NAC or a combination of 1 μM of P1C2 and 0.3 mM of NAC. Cells cultured in media containing DMSO served as a control. All cells were cultured for either 6 days or 13 days at 37° C., 5% CO2 and 4% O2, and media was changed every 3 days. For both day 6 and day 13 groups, only clones with more than 3 cells at day 6 were harvested and pooled to a maximum of 50 cells. […] Libraries were sequenced on an Illumina NextSeq500 to obtain 75 bp-long single-end reads.
RNA-sequencing reads were trimmed for Nextera and Illumina adapter sequences using Trim Galore under default parameters. Trimmed reads were then mapped to the human genome build GRCh37 from Ensembl (ftp:/][/ftp.ensembl.org/pub/grch37/current/fasta/homo_sapiens/dna/Homo_sapiens.GRCh37.dna_sm.primary_as sembly.fa.gz) using STAR under optimized parameters for single-end sequenced data. Aligned reads were then counted via feature-Counts and piped into DESeq2 for normalization to sequencing depth and downstream analysis. […]

CC(=O)N[C@@H](CS)C(=O)O [NAC, N-acetyl-L-cysteine]
proliferation of freshly isolated patient CTC clone after switch to NAC containing media [1]: rescued a CTC clone; also recorded: recovered and resumed proliferation
growth of isolated CTCs compared to the control condition [2]: promote growth of small numbers of CTCs; also recorded: significantly increased
lipid metabolism pathway enrichment (IPA of differentially expressed genes) compared with control (BRx68-GFP+ cells): enriched
